In publication PMC2362811, “In vivo efficacy of XR9051, a potent modulator of P-glycoprotein mediated multidrug resistance” (British Journal of Cancer, 1999):
Like-named read-outs stand apart in the source and are kept apart here.

Experiments:
[1] = test system: MC26 murine colon carcinoma; format: in vivo
[2] = test system: 2780AD ovarian carcinoma xenografts; format: in vivo
in vivo = format: in vivo; design: maximum concentration in tumour tissue / maximum concentration in tumour tissue (molar) / concentrations in H69/LX4 MDR tumours over a 25 h period: unit not given here
[3] = test system: P388/P-sensitive murine leukaemia; experiment: In vivo efficacy, P388/P sensitive murine leukaemia model (survival); design: species or system mouse; details: for lifespan of tumour-bearing animals vs vehicle alone: vincristine 0.1 mg kg-1 i.p. days 1-5 or doxorubicin 2 mg kg-1 i.p. days 1, 4 and 7, P < 0.005
[4] = Plasma levels of XR9051 after single oral dose in Balb/c mice; format: in vivo; details: mouse
[5] = test system: P388/DX Johnson murine leukaemia; details: for survival of resistant leukaemia-bearing mice, combination vs cytotoxic drug alone: days 1-5, P < 0.01; for survival, cytotoxic drug in the absence of XR9051: P388/DX Johnson-resistant leukaemia-bearing mice, cytotoxic drug alone
[6] = Pharmacokinetics of XR9051 after single i.v. dose in Balb/c mice (plasma, liver, heart, brain; HPLC); format: in vivo, mouse; details: for half-life: two-compartment model
[7] = test system: H69/LX small cell lung carcinoma xenografts; format: in vivo
[8] = test system: murine and human P-gp-expressing cell lines; design: method as in Dale et al, 1998; details: co-exposure, several murine and human P-gp-expressing cell lines; ref Dale et al, 1998; cited from earlier work
[9] = test system: CH1/DOXr ovarian carcinoma xenografts; format: in vivo; details: for tumour growth rate compared with either drug alone: P < 0.01
MC26 cells = experiment: In vitro sensitization of MC26 cells to doxorubicin; format: cell-based, mouse; details: 500 nM XR9051, in vitro (unpublished data)
P388/DX Johnson cells = details: the cell line used in our studies
[10] = test system: P388 cells transfected with the human MDR1 gene; details: ref Yang et al, 1994; cited from earlier work
[11] = single i.v. 20 mg kg-1, H69/LX4 SCLC xenograft-bearing athymic mice

In the case of COc1cc2c(cc1OC)CN(CCc1ccc(NC(=O)c3cccc(/C=c4\[nH]c(=O)/c(=C/c5ccccc5)n(C)c4=O)c3)cc1)CC2 [XR9051, N-(4-(2-(6,7-dimethoxy-1,2,3,4-tetrahydro-2-isoquinolyl)ethyl)phenyl)-3-((3Z,6Z)-6-benzylidene-1-methyl-2,5-dioxo-3-piperazinylidene)methylbenzamide], the “tumour growth inhibition, XR9051 alone” value ([1]; XR9051 alone, pilot experiments) is reported as “no significant inhibitory activity”, the “tumour growth on day 14 compared to cytotoxic drug alone” value ([1]; XR9051 i.p. 20 mg kg-1 at 0 and 4 h with doxorubicin 5 mg kg i.v. at 1 h) is reported as “significant (P < 0.001) inhibition of tumour growth” and the “body weight gain between the various groups” value ([1]; XR9051 i.p. or p.o. with doxorubicin) is reported as “no differences in body weight gain”. The “tumour growth on day 14 compared to cytotoxic drug alone” value ([1]; XR9051 p.o. 40 mg kg-1 at 0 and 4 h with doxorubicin 5 mg kg i.v. at 1 h) was “significant (P < 0.001) inhibition of tumour growth”, the “extent of reversal of resistance” value ([2]; XR9051 40 mg kg-1 with epirubicin, compared with sensitive 2780 tumours (Plumb et al, 1994)) was “full reversal of resistance” and the “tumour growth rate compared with either drug alone” value ([2]; XR9051 i.p. 20-40 mg kg-1 2 h before and after epirubicin 10 mg kg-1 i.v., P < 0.01, dose related) was “significantly reduced growth rate”. The AUC (in vivo; athymic, mouse, tumour (H69/LX4 SCLC xenograft), iv, single i.v. 20 mg kg-1, H69/LX4 tumour, read-out: AUC0- in tumour tissue) was 57100 ng·h/mL, the half-life (in vivo; athymic, mouse, tumour (H69/LX4 SCLC xenograft), iv, single i.v. 20 mg kg-1, H69/LX4 tumour, read-out: apparent elimination half-life in tumour tissue (converted)) was 8.79 h and the Tmax (in vivo; athymic, mouse, tumour (H69/LX4 SCLC xenograft), iv, single i.v. 20 mg kg-1, H69/LX4 tumour, read-out: time of maximum concentration in tumour tissue) was 1.5 h. For the same molecule, the “concentrations in H69/LX4 MDR tumours over a 25 h period” value (in vivo; single i.v. 20 mg kg-1, 25 h period) was 0.6-9.4, the “maximum concentration in tumour tissue” value (in vivo; [11]) was 6.94 and the “maximum concentration in tumour tissue (molar)” value (in vivo; [11]) was 9.4. For the same molecule, the survival time ([3]; P388/P-sensitive cells implanted i.p.) was 12 days, the “lifespan of sensitive tumour-bearing animals, co-administration with cytotoxic drug” value ([3]; XR9051 20 or 40 mg kg-1 i.v. with vincristine or doxorubicin) was “did not further increase the lifespan” and the bioavailability ([4]; Balb/c, oral, p.o. 50 mg kg-1 vs i.v., mice) was about 46%. For the same molecule, the Tmax ([4]; po, p.o. 50 mg kg-1, Balb/c mice) was about 3.4 h, the AUC(0-t) ([4]; po, p.o. 50 mg kg-1, Balb/c mice, read-out: AUC0-24 h) was 13500 ng·h/mL and the Cmax ([4]; po, p.o. 50 mg kg-1, Balb/c mice, read-out: Cmax in plasma) was 1300 ng/mL. The Cmax ([4]; po, p.o. 50 mg kg-1, Balb/c mice, read-out: Cmax in plasma (molar)) was 1800 nM, the “survival, modulator alone” value ([5]; XR9051 alone by any route, mice bearing sensitive or resistant tumours) was “no effect on survival” and the “lifespan of resistant tumour-bearing animals” value ([5]; XR9051 i.p. 5, 10 and 20 mg kg-1 with vincristine 0.1 mg kg-1 i.p., dose-dependent (data not shown)) was “increase in lifespan”. The “survival of resistant leukaemia-bearing mice, combination vs cytotoxic drug alone” value ([5]; XR9051 i.v. 10, 20 or 40 mg kg-1 1 h before vincristine 0.1 mg kg-1 i.p.) was “significantly increased survival”, the “survival of resistant leukaemia-bearing mice, combination vs cytotoxic drug alone” value ([5]; XR9051 p.o. 60, 80 or 120 mg kg-1 1 h before vincristine 0.1 mg kg-1 i.p.) was “significantly increased survival” and the “toxicity of combination therapy as assessed by body weight loss” value ([5]; XR9051 with vincristine or doxorubicin (data not shown)) was “no significant increase in toxicity”. For the same molecule, the “oral potency relative to i.v. administration” value ([5]; xenograft and murine tumour models) was “two- to three-fold less”, the “linearity of intravenous pharmacokinetic parameters” value ([6]; i.v., between 20 and 100 mg kg-1 doses (data not shown)) was “linear” and the Vd ([6]; mouse, in vivo, iv, single i.v. 20 mg kg-1, Balb/c mice, read-out: steady-state volume of distribution) was 9.6 L/kg. For the same molecule, the Kp ([6]; mouse, iv, single i.v. 20 mg kg-1, Balb/c mice, brain, read-out: ratio between AUC for tissue:plasma, brain) was 0.3, the Kp ([6]; mouse, iv, single i.v. 20 mg kg-1, Balb/c mice, heart, read-out: ratio between AUC for tissue:plasma, heart) was 16.9 and the Kp ([6]; mouse, iv, single i.v. 20 mg kg-1, Balb/c mice, liver, read-out: ratio between AUC for tissue:plasma, liver) was 79.6. For the same molecule, the AUC ([6]; mouse, iv, single i.v. 20 mg kg-1, Balb/c mice, plasma, read-out: AUC from time 0- for plasma) was 11900 ng·h/mL, the half-life ([6]; mouse, iv, single i.v. 20 mg kg-1, Balb/c mice, brain, read-out: apparent elimination half-life in brain (converted)) was 1.15 h and the half-life ([6]; mouse, iv, single i.v. 20 mg kg-1, Balb/c mice, heart, read-out: apparent elimination half-life in heart (converted)) was 2 h. For the same molecule, the half-life ([6]; mouse, iv, single i.v. 20 mg kg-1, Balb/c mice, liver, read-out: apparent elimination half-life in liver (converted)) was 4.93 h, the half-life ([6]; mouse, iv, single i.v. 20 mg kg-1, Balb/c mice, plasma, read-out: apparent elimination half-life in plasma (converted)) was 3.96 h and the “potentiation of anti-tumour activity of doxorubicin” value ([7]; XR9051 40 mg kg-1 i.p. or p.o. with doxorubicin (2 mg kg-1), P < 0.01) was “significantly potentiated the anti-tumour activity”. The “potentiation of anti-tumour activity of vincristine” value ([7]; XR9051 40 mg kg-1 i.p. or p.o. with vincristine 0.5 mg kg-1 i.p., P < 0.01) was “significantly potentiated the anti-tumour activity”, the “tolerability of combination schedules” value ([7]; XR9051 with vincristine or doxorubicin) was “well-tolerated” and the “concentration that fully reverses resistance to a range of cytotoxic drugs in vitro” value [8] was 300 to 500 nM. The “tumour growth rate compared with either drug alone” value ([9]; XR9051 10 mg kg-1 i.v. with Paclitaxel 20 mg kg-1 i.p., days 0, 2 and 4) was “significantly reduced tumour growth rate”, the “tumour growth rate compared with either drug alone” value ([9]; XR9051 20 mg kg-1 i.v. with etoposide 30 mg kg-1 i.p., days 0, 5 and 11) was “significantly reduced tumour growth rate” and the “tolerability of combination schedules as judged by changes in body weights” value ([9]; XR9051 i.v. with Paclitaxel or etoposide (data not shown)) was “well-tolerated”. The “enhancement of sensitivity of MC26 cells to doxorubicin” value (MC26 cells) was “three-fold”.

In the case of CC[C@]1(O)C[C@H]2CN(CCc3c([nH]c4ccccc34)[C@@](C(=O)OC)(c3cc4c(cc3OC)N(C=O)[C@H]3[C@@](O)(C(=O)OC)[C@H](OC(C)=O)[C@]5(CC)C=CCN6CC[C@]43[C@@H]65)C2)C1 [vincristine, reference compound], the “resistance factor of cell line to vincristine” value (P388/DX Johnson cells) is given as 70 fold, the “resistance factor of cell line to vincristine” value [10] is given as 22 fold and the “lifespan of tumour-bearing animals vs vehicle alone” value [3] is given as “increased the lifespan”. For the same molecule, the “survival, cytotoxic drug in the absence of XR9051” value [5] was “little or no effect on survival”.

For COc1cccc2c1C(=O)c1c(O)c3c(c(O)c1C2=O)C[C@@](O)(C(=O)CO)C[C@@H]3O[C@H]1C[C@H](N)[C@H](O)[C@H](C)O1 [doxorubicin, reference compound], the “lifespan of tumour-bearing animals vs vehicle alone” value [3] was “increased the lifespan” and the “survival, cytotoxic drug in the absence of XR9051” value [5] was “little or no effect on survival”.
